Measured values: patent publication US20220249463A1, “METHODS OF ALTERING CARDIAC REMODELING USING COMPOUNDS THAT PROMOTE GLUCOSE OXIDATION” (IMBRIA PHARMACEUTICALS, INC., priority 2019, published 2022)

Assay: Stability of CV-8972 in aqueous solution at different concentrations and pH
Type: physicochemical
Procedure: The stability of CV-8972 was analyzed. Aqueous samples containing CV-8972 at different concentrations and pH were incubated for various periods and analyzed.
Form A of CV-8972 were analyzed for stability in aqueous solution. Aqueous samples containing CV-8972 at different concentrations and pH were incubated for various periods and analyzed.

[1] = 276-MBA-172 2 mg/mL pH 6 (Form A), 0 hrs, pH 6.1
[2] = 276-MBA-172 2 mg/mL pH 6 (Form A), 1 hrs, pH 6.1
[3] = 276-MBA-172 2 mg/mL pH 6 (Form A), 4 hrs, pH 6.1
[4] = 276-MBA-172 2 mg/mL pH 6 (Form A), 6 hrs, pH 6.1
[5] = 276-MBA-172 2 mg/mL pH 7 (Form A), 0 hrs, pH 6.7
[6] = 276-MBA-172 2 mg/mL pH 7 (Form A), 1 hrs, pH 6.8
[7] = 276-MBA-172 2 mg/mL pH 7 (Form A), 4 hrs, pH 6.7
[8] = 276-MBA-172 2 mg/mL pH 7 (Form A), 6 hrs, pH 6.7
[9] = 276-MBA-172 2 mg/mL pH 7 (Form A), 22 hrs, pH 6.8
[10] = 276-MBA-172 10 mg/mL pH 6 (Form A), 0 hrs, pH 6.6
[11] = 276-MBA-172 10 mg/mL pH 6 (Form A), 1 hrs, pH 6.8
[12] = 276-MBA-172 10 mg/mL pH 6 (Form A), 4 hrs, pH 6.8
[13] = 276-MBA-172 10 mg/mL pH 6 (Form A), 6 hrs, pH 6.7
[14] = 276-MBA-172 10 mg/mL pH 6 (Form A), 22 hrs, pH 6.7
[15] = 276-MBA-172 10 mg/mL pH 7 (Form A), 0 hrs, pH 7.1
[16] = 276-MBA-172 10 mg/mL pH 7 (Form A), 1 hrs, pH 7.2
[17] = 276-MBA-172 10 mg/mL pH 7 (Form A), 4 hrs, pH 7.1
[18] = 276-MBA-172 10 mg/mL pH 7 (Form A), 6 hrs, pH 7.1
[19] = 289-MBA-15-A 2 mg/mL pH 6 (Form B), 0 hrs, pH 6.9
[20] = 289-MBA-15-A 2 mg/mL pH 6 (Form B), 1 hrs, pH 6.9
[21] = 289-MBA-15-A 2 mg/mL pH 6 (Form B), 4 hrs, pH 6.8
[22] = 289-MBA-15-A 2 mg/mL pH 6 (Form B), 6 hrs, pH 6.8

Retention Time 4.2 [1]: 1.29 | Retention Time 5.6 [1]: 98.01 | Decrease in purity of CV-8972 between time points [2]: 0.79 | Retention Time 2.2 [2]: 1.5 | Retention Time 4.2 [2]: 1.28 | Retention Time 5.6 [2]: 97.22 | Decrease in purity of CV-8972 between time points [3]: 0.21 | Retention Time 2.2 [3]: 2.03 | Retention Time 4.2 [3]: 0.95 | Retention Time 5.6 [3]: 97.01 | Decrease in purity of CV-8972 between time points [4]: 0.5 | Retention Time 2.2 [4]: 2.47 | Retention Time 4.2 [4]: 1.02 | Retention Time 5.6 [4]: 96.51 | Retention Time 2.2 [5]: 1.42 | Retention Time 4.2 [5]: 1.05 | Retention Time 5.6 [5]: 97.53 | Decrease in purity of CV-8972 between time points [6]: 2.47 | Retention Time 2.2 [6]: 3.31 | Retention Time 4.2 [6]: 1.06 | Retention Time 4.7 [6]: 0.57 | Retention Time 5.6 [6]: 95.06 | Decrease in purity of CV-8972 between time points [7]: 1.36 | Retention Time 2.2 [7]: 4.21 | Retention Time 2.6 [7]: 0.58 | Retention Time 4.2 [7]: 0.82 | Retention Time 4.7 [7]: 0.69 | Retention Time 5.6 [7]: 93.7 | Decrease in purity of CV-8972 between time points [8]: 1.58 | Retention Time 2.2 [8]: 5.63 | Retention Time 2.6 [8]: 0.67 | Retention Time 4.2 [8]: 0.74 | Retention Time 4.7 [8]: 0.85 | Retention Time 5.6 [8]: 92.12 | Decrease in purity of CV-8972 between time points [9]: 1.05 | Retention Time 2.2 [9]: 6.26 | Retention Time 2.6 [9]: 0.85 | Retention Time 4.2 [9]: 0.85 | Retention Time 4.7 [9]: 0.98 | Retention Time 5.6 [9]: 91.07 | Retention Time 2.2 [10]: 3.39 | Retention Time 2.6 [10]: 0.6 | Retention Time 4.2 [10]: 0.23 | Retention Time 4.7 [10]: 0.54 | Retention Time 5.6 [10]: 95.24 | Decrease in purity of CV-8972 between time points [11]: 1.81 | Retention Time 2.2 [11]: 4.81 | Retention Time 2.6 [11]: 0.81 | Retention Time 4.2 [11]: 0.23 | Retention Time 4.7 [11]: 0.73 | Retention Time 5.6 [11]: 93.43 | Decrease in purity of CV-8972 between time points [12]: 1.61 | Retention Time 2.2 [12]: 5.72 | Retention Time 2.6 [12]: 0.9 | Retention Time 4.2 [12]: 0.21 | Retention Time 4.7 [12]: 0.83 | Retention Time 5.6 [12]: 91.82 | Decrease in purity of CV-8972 between time points [13]: 0.02 | Retention Time 2.2 [13]: 6.45 | Retention Time 2.6 [13]: 0.81 | Retention Time 4.7 [13]: 0.93 | Retention Time 5.6 [13]: 91.8 | Decrease in purity of CV-8972 between time points [14]: 2.14 | Retention Time 2.2 [14]: 7.38 | Retention Time 2.6 [14]: 1.54 | Retention Time 4.2 [14]: 0.13 | Retention Time 4.7 [14]: 1.11 | Retention Time 5.6 [14]: 89.66 | Retention Time 2.2 [15]: 5.9 | Retention Time 2.6 [15]: 0.94 | Retention Time 4.2 [15]: 0.22 | Retention Time 4.7 [15]: 0.78 | Retention Time 5.6 [15]: 92.85 | Decrease in purity of CV-8972 between time points [16]: 3.8 | Retention Time 2.2 [16]: 8.12 | Retention Time 2.6 [16]: 1.45 | Retention Time 4.2 [16]: 0.21 | Retention Time 4.7 [16]: 1.17 | Retention Time 5.6 [16]: 89.05 | Decrease in purity of CV-8972 between time points [17]: 2.25 | Retention Time 2.2 [17]: 10.14 | Retention Time 2.6 [17]: 1.48 | Retention Time 4.2 [17]: 0.13 | Retention Time 4.7 [17]: 1.46 | Retention Time 5.6 [17]: 86.8 | Decrease in purity of CV-8972 between time points [18]: 2.01 | Retention Time 2.2 [18]: 11.63 | Retention Time 2.6 [18]: 1.78 | Retention Time 4.2 [18]: 0.13 | Retention Time 4.7 [18]: 1.67 | Retention Time 5.6 [18]: 84.79 | Retention Time 2.2 [19]: 1.33 | Retention Time 4.2 [19]: 1.19 | Retention Time 5.6 [19]: 97.48 | Decrease in purity of CV-8972 between time points [20]: 2.38 | Retention Time 2.2 [20]: 3.73 | Retention Time 4.2 [20]: 1.17 | Retention Time 5.6 [20]: 95.1 | Decrease in purity of CV-8972 between time points [21]: 2.65 | Retention Time 2.2 [21]: 5.25 | Retention Time 2.6 [21]: 0.67 | Retention Time 4.2 [21]: 0.84 | Retention Time 4.7 [21]: 0.79 | Retention Time 5.6 [21]: 92.45 | Decrease in purity of CV-8972 between time points [22]: 1.8 | Retention Time 2.2 [22]: 6.63 | Retention Time 2.6 [22]: 0.9 | Retention Time 4.2 [22]: 0.83 | Retention Time 4.7 [22]: 0.99 | Retention Time 5.6 [22]: 90.65 | Decrease in purity of CV-8972 between time points (289-MBA-15-A 2 mg/mL pH 6 (Form B), 22 hrs, pH 6.7): 1.5
SMILES: COc1ccc(CN2CCN(CCOC(=O)c3cccnc3)CC2)c(OC)c1OC [CV-8972, 2-(4-(2,3,4-trimethoxybenzyl)piperazin-1-yl)ethyl nicotinate]
